Entries after “also recorded” stand apart in the source; their conditions may differ.
Assays:
[1] = system: etiolated Col-0 wt seedlings; experiment: Measurement of ethylene biosynthesis by gas chromatography; format: in vivo, Arabidopsis
Procedure: (§1) For screening for chemicals that reduce ethylene response, Arabidopsis ctr1-3 seeds were planted on a microtiter plate containing PNS media in the presence of individual chemicals (50 μM concentration of each) from the Microsource Spectrum Collection. Seedlings were grown in the dark for 4 d after which they were scored for manifestation of the ethylene responsive triple response. For all other growth experiments, seedlings were planted on PNS media supplemented with the relevant chemical (Deslauriers and Larsen, 2010). For conditions requiring pamoic acid, media was supplemented with Pamoic acid disodium salt (Sigma Life Science, St. Louis, Mo.). Measurement of ethylene production was conducted as previously described (Deslauriers and Larsen, 2010).

[2] = biological target: T1, TIR1-IAA7 complex (Arabidopsis thaliana, UniProt Q570C0); experiment: In vitro assembly of the TIR1-IAA7 complex in the presence of auxin; format: biochemical
T1 sequence (Q570C0 1-594): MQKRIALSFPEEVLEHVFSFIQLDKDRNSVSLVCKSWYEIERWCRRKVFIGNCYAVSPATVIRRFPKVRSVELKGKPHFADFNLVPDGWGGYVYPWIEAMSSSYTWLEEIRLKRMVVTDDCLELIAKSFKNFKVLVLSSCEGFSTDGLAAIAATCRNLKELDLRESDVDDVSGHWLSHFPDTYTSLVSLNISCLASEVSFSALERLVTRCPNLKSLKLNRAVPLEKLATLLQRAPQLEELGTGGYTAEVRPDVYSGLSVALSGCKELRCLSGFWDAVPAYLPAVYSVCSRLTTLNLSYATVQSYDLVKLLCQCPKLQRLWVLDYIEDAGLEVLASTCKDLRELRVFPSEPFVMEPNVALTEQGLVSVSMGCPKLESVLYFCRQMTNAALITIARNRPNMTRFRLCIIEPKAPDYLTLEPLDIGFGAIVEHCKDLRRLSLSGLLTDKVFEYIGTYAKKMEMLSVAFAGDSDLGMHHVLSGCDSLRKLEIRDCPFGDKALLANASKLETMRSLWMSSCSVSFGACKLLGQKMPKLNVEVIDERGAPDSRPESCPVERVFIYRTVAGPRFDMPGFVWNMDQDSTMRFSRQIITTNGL
From the text: It should be noted that based on our growth analysis with various loss-of-function mutants for auxin receptors, it is likely that one or more of the other receptors are affected to a greater extent than TIR1 by each of these chemicals.

[3] = system: Col-0 wt seedlings; experiment: Seedling triple response of ethylene-treated etiolated Col-0 wt seedlings; format: in vivo, Arabidopsis
Procedure: as §1
For Col-0 wt, seedlings were grown in either the presence or absence of 5 μM AgNO3, an inhibitor of ethylene perception, or 100 μL L^−1 ethylene, which is a concentration that results in maximal response in etiolated seedlings. […] It should be noted that the phenotype of PA-treated seedlings in the presence of saturating ethylene is strikingly similar to ethylene-treated wei8 and tart loss-of-function mutants, which are deficient in auxin biosynthesis (Stepanova et al., 2008).

[4] = system: Col-0 wt seedlings; experiment: Blockage of auxin dependent inhibition of root growth; format: in vivo, Arabidopsis
Procedure: For screening for chemicals that reduce ethylene response, Arabidopsis ctr1-3 seeds were planted on a microtiter plate containing PNS media in the presence of individual chemicals (50 μM concentration of each) from the Microsource Spectrum Collection. Seedlings were grown in the dark for 4 d after which they were scored for manifestation of the ethylene responsive triple response. For all other growth experiments, seedlings were planted on PNS media supplemented with the relevant chemical (Deslauriers and Larsen, 2010). For conditions requiring pamoic acid, media was supplemented with Pamoic acid disodium salt (Sigma Life Science, St. Louis, Mo.). Measurement of ethylene production was conducted as previously described (Deslauriers and Larsen, 2010). […]

[5] = system: DR5::GUS; experiment: GUS analysis of auxin responsive DR5::GUS reporter line; format: in vivo, Arabidopsis
Procedure: GUS analysis of DR5::GUS lines was performed as previously described (Ni et al., 2001).
Auxin responsiveness has also been assessed using the Arabidopsis DR5::GUS transgenic line in which several auxin response elements are fused upstream of the GUS reporter gene (Ni et al., 2001). Normally, treatment of DR5::GUS lines with exogenous auxin leads to increased GUS levels, which can be visualized through accumulation of blue color upon adding X-Gluc.

[6] = system: Col-0 wt, tir1-1, afb1-5, afb2-3, afb3-5, afb4-1 seedlings; experiment: Hypocotyl and root elongation of auxin receptor loss-of-function mutants; format: in vivo, Arabidopsis; conditions: tir1-1, increasing range of Tolmetin
From the text: Loss of proper auxin signaling as in the dominant shy2-2 mutant (Tian et al., 2003), which fails to have proper turnover of the IAA3 repressor of auxin response, leads to severe hypocotyl shortening for etiolated seedlings (Robles et al., 2012). […] It was of interest to determine what effect PA might have on hypocotyl and root elongation for loss-of-function mutants representing members of the Arabidopsis family of auxin receptors. It was predicted that mutants for receptors with a more prominent role in auxin dependent maintenance of organ elongation would be more severely affected by PA treatment due to the additive effect of the loss-of-function mutation with the effect of this anti-auxinic compound.
For analysis of the role of the various receptors in hypocotyl elongation, Col-0 wt and loss-of-function mutants for all of the auxin receptors (Si-Ammour et al., 2011) except AFB5 were grown for 4 d in the dark in the absence or presence of 30 μM PA on media supplemented with 5 μM AgNO3, which was included to eliminate the negative effect of ethylene on hypocotyl elongation.
A similar result was found for tir1-1 roots. For this experiment, seedlings were grown in the dark for 4 d in the absence or presence of 30 μM PA after which root length was measured. […] This was confirmed by analysis of growth of Col-0 wt and tir1-1 roots across a range of PA concentrations.

[7] = system: Col-0 wt seedlings; experiment: Root length dose response; format: in vivo, Arabidopsis
Procedure: as §1
Auxin is required for normal root growth since at physiological concentrations it promotes cell elongation.

[8] = system: ctr1-3 seedlings; experiment: Seedling triple response of constitutive ethylene response mutant ctr1-3 (library screen and follow-up); format: in vivo, Arabidopsis
Procedure: as §1
A chemical library screen was performed in which etiolated seedlings of the constitutive ethylene response mutant, ctr1-3, were grown in air for 4 d in the presence of chemicals from the Microsource Spectrum Collection, a bioactive and natural compound library consisting of 2000 different compounds. ctr1-3 seedlings were scored for presentation of the ethylene regulated seedling triple response, consisting of severe hypocotyl and root shortening and exaggerated apical hook formation.

[9] = system: Col-0 wt seedlings; experiment: Root gravitropism on vertical agar plates; format: in vivo, Arabidopsis
[10] = etiolated ctr1-3 in air, 4 d, 50 μM of each chemical
[11] = 5 days in the light, 50 micromolar Tolmetin (FIG. 7)

Cc1ccc(C(=O)c2ccc(CC(=O)O)n2C)cc1 [Tolmetin]
ethylene biosynthesis ([1]; 10 μM PA or 30 μM Tolmetin, 96 h, ethylene generated in the last 18 h): no measurable effect on ethylene biosynthesis
ethylene biosynthesis ([1]; 50 micromolar Tolmetin, 4 days in the dark (FIG. 4)): does not reduce ethylene biosynthesis
blockage of assembly of the TIR1-IAA7 complex [2]: not been possible to demonstrate
seedling length independent of ethylene ([3]; Col-0 wt with 5 μM AgNO3, 4 d dark, 10 μM PA or Tolmetin up to 30 μM): negative effect was not seen
manifestation of the ethylene dependent seedling triple response (loss of apical hook formation) ([3]; Tolmetin 20-100 micromolar, Col-0 wt treated with saturating ethylene (FIG. 1)): partially blocks
apical hook formation ([3]; etiolated Col-0 wt, 100 μL L−1 (saturating) ethylene, 4 d dark, 10 μM PA or Tolmetin up to 30 μM): prevent apical hook formation; also recorded: nearly complete loss of apical hook formation
root length / organ specificity of effect in ethylene treated seedlings ([3]; etiolated Col-0 wt, saturating ethylene, 4 d dark, 10 μM PA or Tolmetin up to 30 μM): specific to hypocotyls
inhibitory effect of Tolmetin on root length on addition of IAA ([4]; 5 days, 50 micromolar Tolmetin plus 300 nM IAA (FIG. 6)): almost completely overcome
root length, Tolmetin alone ([4]; 5 days, 50 micromolar Tolmetin, 0 nM IAA (FIG. 6)): significant root growth inhibition
root length, anti-auxin alone ([4]; light, 7 d, 30 μM PA or 50 μM Tolmetin alone versus untreated roots): significantly inhibited
inhibitory effects of exogenous auxin on root length ([4]; light, 7 d, 30 μM PA with 150 nM NAA, 50 μM Tolmetin with 300 nM IAA): greatly reduced the inhibitory effects of exogenous auxin
dark color (GUS) in the absence of exogenous auxin ([5]; 0 versus 100 micromolar Tolmetin, no exogenous auxin (FIG. 8)): comparable level of dark color
staining / auxin dependent lateral root formation ([5]; 100 μM Tolmetin, 750 nM IAA (FIG. 8)): prevented staining in the area of lateral root development; also recorded: completely blocks auxin dependent lateral root formation
auxin dependent accumulation of GUS in root tips ([5]; 100 μM Tolmetin, exposure to IAA): blocked auxin dependent accumulation of GUS in root tips
root growth sensitivity of tir1-1 [6]: hypersensitive
root length at increasing concentrations ([7]; Col-0 wt, 7 d, increasing concentrations, versus untreated control roots): severe inhibition of root length
root growth at low concentrations ([7]; Col-0 wt, 7 d, low concentrations): stimulatory effect
root length ([7]; light, increasing concentrations of Tolmetin, 5 days (FIG. 5)): inhibitory to root growth at high concentrations
ethylene-dependent root growth inhibition ([8]; ctr1-3, 10 μM PA or 30 micromolar Tolmetin): did not prevent the severe root growth inhibition; also recorded: does not affect ethylene-dependent root growth inhibition
root growth of light grown ctr1-3 ([8]; ctr1-3 grown in the light, increasing concentrations of Tolmetin (FIG. 3)): No positive effect on root growth was observed
apical hook formation ([8]; dark grown ctr1-3, 10 μM PA or 30 μM Tolmetin): prevent apical hook formation; also recorded: fully eliminated apical hook formation; also recorded: nearly complete loss of apical hook formation
apical hook formation in chemical library screen [8, 10]: blocked apical hook formation
root length in chemical library screen [8, 10]: measurably longer roots
direction of root growth (gravitropism) ([9]; 4 d, vertical agar plates, 30 μM PA or 50 μM Tolmetin): grew in a random manner that was independent of gravity
direction of root growth (gravitropism) [9, 11]: agravitropic root growth
root hairs [9, 11]: completely lacked root hairs
